Source: patent US9771389B2, “Tylosin derivatives and method for preparation thereof” (BAYER ANIMAL HEALTH GMBH, priority 2013, dated 2017)
Converted amounts (≈) assume the structure as drawn.

Assays:
[1] = system: Arcanobacterium pyogenes; test: MIC50 mastitis pathogens, broth dilution; type: cell-based; details: Trueperella pyogenes, A. pyogenes, 7 to 12 isolates, 24 hours
From the text: (§1) The activity of several compounds against bacterial mastitis pathogens has been tested under in-vitro conditions according to a recognized procedure (CLSI, document […]-A3, 2008). In this test 7 to 12 representative bacteria belonging to 7 bacterial species that typically cause mastitis in dairy cattle, i.e. Staphylococcus aureus, coagulase negative staphylococci (CNS), Streptococcus uberis, Streptococus dysgalactiae, Streptococcus agalactiae, Arcanobacterium pyogenes and Escherichia coli, were exposed to two-fold dilutions of the test compounds. After 24 hours of incubation the concentration that inhibited the growth of this bacteria was determined. It could be shown that all these bacterial mastitis pathogens were highly susceptible to the test compounds.

[2] = system: Escherichia coli; test: MIC50 mastitis pathogens, broth dilution; type: cell-based; details: E. coli, 7 to 12 isolates, 24 hours
From the text: as §1

[3] = system: Staphylococcus aureus; test: MIC50 mastitis pathogens, broth dilution; type: cell-based; details: S. aureus, 7 to 12 isolates, 24 hours
From the text: as §1

[4] = system: Streptococcus agalactiae; test: MIC50 mastitis pathogens, broth dilution; type: cell-based; details: Str agalactiae, 7 to 12 isolates, 24 hours
From the text: as §1

[5] = system: Streptococcus uberis; test: MIC50 mastitis pathogens, broth dilution; type: cell-based; details: Str uberis, 7 to 12 isolates, 24 hours
From the text: as §1

[6] = system: Streptococus dysgalactiae; test: MIC50 mastitis pathogens, broth dilution; type: cell-based; details: Str dysgalactiae, 7 to 12 isolates, 24 hours
From the text: as §1

[7] = system: coagulase negative staphylococci (CNS); test: MIC50 mastitis pathogens, broth dilution; type: cell-based; details: 7 to 12 isolates, 24 hours
From the text: as §1

[8] = system: Mannheimia haemolytica, 3 isolates; test: MIC against Mannheimia haemolytica isolates; type: cell-based; details: for MIC: Mannheimia haemolytica, 3ISOLATES, 3 Mannheimia haemolytica isolates, broth dilution method, read-out: Range of minimum inhibitory concentrations (MIC)
Procedure: (§2) Minimal inhibitory concentrations (MICs) were determined against the most prevalent pathogens in cattle (Mannheimia Haemolytica, 3 isolates) and swine (A. pleuropneumoniae, 6 isolates). In addition the activity of several compounds was tested against two bacterial species, i.e. Mannheimia haemolytica and Actinobacillus pleuropneumoniae, which are considered as the most important bacterial respiratory pathogens in cattle and swine, respectively.

[9] = system: Actinobacillus pleuropneumoniae, 6 isolates; test: MIC against Actinobacillus pleuropneumoniae isolates; type: cell-based; details: for MIC: 6ISOLATES, 6 Actinobacillus pleuropneumoniae isolates, broth dilution method, read-out: Range of minimum inhibitory concentrations (MIC)
Procedure: as §2

[10] = system: S. aureus bacteria (strain Newbould); test: Mouse mastitis model of infection; type: in vivo, mice; details: for mean S. aureus count in glands: 14 hours after application, untreated 8.64 log 10
From the text: The clinical efficacy of compound YT709 against mastitis caused by S. aureus was shown in lactating mice according to a recognized published procedure (E. Brouillette, G. Grondin, C. Lefebvre, B. G. Talbot, F. Malouin, Mouse mastitis model of infection for antimicrobial compound efficacy studies against intracellular and extracellular forms of Staphylococcus aureus, Veterinary Microbiology, 101, (2004), 253-262). Into the glands of lactating mice S. aureus bacteria (strain Newbould) were instilled and allowed to multiply. Bacterium S. aureus Newbould is an isolate which was isolated from a clinical case of bovine mastitis and which also causes typical mastitis infection in dairy cattle upon experimental, intramammary infection. Four hours after the intramammary infection of lactating mice with S. aureus Newbould, compound YT709 was instilled into the infected glands. Different intramammary dosages of YT709 were tested and their efficacy compared to an infected, untreated control group. Fourteen hours after intramammary application of YT709, the glands of the treated and untreated mice were removed, homogenized and the number of S. aureus bacteria counted in 10-fold dilutions of the homogenized glands. The mean S. aureus count of 8 untreated glands was 10^8.64 (8.64 log 10) bacteria. The mean S. aureus count in 6 glands that had been treated with 200 microgram YT709 was 10^5.10 bacteria (5.10 log 10). […] The mean S. aureus count in the 5 glands that had been treated with 400 microgram YT709 was 10^2.34 bacteria (2.34 log 10).

[11] = system: M. hemolytica KB345 (Tilmicosin-sensitivity strain); test: Paper disc assay, M. hemolytica KB345; type: cell-based, Mannhemia hemolytica
Procedure: (§3) (1) Antibacterial activities against Mannheimia and Pasteurella were determined by the following steps: • 1) M. hemolytica KB345 (Tilmicosin-sensitivity strain) and M. hemolytica KB346 (Tilmicosin-low sensitivity strain) were provided. KB 345 strain stored at −80° C. was seeded to BHIB agar medium (10 mL) by using Microbank beads (Pro-Lab) and platinum nail. After statically incubating the KB 345 strain for 24 hours at 37° C., it was seeded to maintaining slant BHIB agar medium (7 mL) by using platinum loop, further statically incubated for 24 hours at 37° C. to obtain slant. One platinum loop of KB 345 strain stored at the slant was inoculated into a large test tube charged with BHIB liquid medium (10 mL) and then incubated for 24 hours at 37° C. with shaking. • 2) A paper disc (ADVANTEC, Φ:6 mm) was impregnated with a solution of test compound and dried under reduced pressure. • 3) To a melted BHIB agar medium was inoculated 1% of the broth obtained from step 1) above to prepare a test plate. After the medium set, the paper disc prepared in step 2) above was put on the plate and it was incubated at 37° C. • 4) After one day, the inhibition zone diameter and clarity (A to E) were determined. For KB346 strain, the same procedures were repeated.

[12] = system: M. hemolytica KB346 (Tilmicosin-low sensitivity strain); test: Paper disc assay, M. hemolytica KB346; type: cell-based, Mannhemia hemolytica; details: 100 mg/6 mm disk
Procedure: as §3

| Structure (SMILES) | MIC50 [1] | MIC50 [2] | MIC50 [3] | MIC50 [4] | MIC50 [5] | MIC50 [6] | MIC50 [7] | MIC [8] | MIC [9] | further results |
| --- | --- | --- | --- | --- | --- | --- | --- | --- | --- | --- |
| CC[C@H]1OC(=O)C[C@@H](O)[C@H](C)[C@@H](O[C@@H]2OC(C)[C@@H](O)C(N(C)C)C2O)[C@@H](CCNCc2cn(-c3cnc4ccccc4c3)nn2)C[C@@H](C)C(=O)/C=C/C(C)=C/[C@@H]1CO (some centres unmarked) [YT739] | 0.008 µg/mL (≈ 0.00991 µM) | 8 µg/mL (≈ 9.91 µM) | 0.5 µg/mL (≈ 0.62 µM) | 0.03 µg/mL (≈ 0.0372 µM) | 0.03 µg/mL (≈ 0.0372 µM) | 0.12 µg/mL (≈ 0.149 µM) | 0.25 µg/mL (≈ 0.31 µM) | – | – | – |
| CC[C@H]1OC(=O)C[C@@H](O)[C@H](C)[C@@H](O[C@@H]2OC(C)[C@@H](O)C(N(C)C)C2O)[C@@H](CCN(Cc2ccccc2)Cc2cn(-c3cnc4ccccc4c3)nn2)C[C@@H](C)C(=O)/C=C/C(C)=C/[C@@H]1CO (some centres unmarked) [YT709] | 0.008 µg/mL (≈ 0.00892 µM) | 16 µg/mL (≈ 17.8 µM) | ≤ 0.03 µg/mL | 0.06 µg/mL (≈ 0.0669 µM) | 0.06 µg/mL (≈ 0.0669 µM) | 0.06 µg/mL (≈ 0.0669 µM) | ≤ 0.03 µg/mL | 2 to 4 µg/mL (≈ 2.23 to 4.46 µM) | 2 to 4 µg/mL (≈ 2.23 to 4.46 µM) | reduction of number of bacteria vs untreated glands ([10]; 200 microgram intramammary): about 3500 fold; mean S. aureus count in glands ([10]; 200 microgram intramammary, 6 glands): 5.10 log 10; glands in which the infection was cleared ([10]; 400 microgram intramammary): 2 out of 5; reduction of number of bacteria vs untreated glands ([10]; 400 microgram intramammary): about two million; mean S. aureus count in glands ([10]; 400 microgram intramammary, 5 glands): 2.34 log 10 |
| CC[C@H]1OC(=O)C[C@@H](O)[C@H](C)[C@@H](O[C@@H]2OC(C)[C@@H](O)C(N(C)C)C2O)[C@@H](CCNCCn2cc(-c3cnc4ccccc4c3)nn2)C[C@@H](C)C(=O)/C=C/C(C)=C/[C@@H]1CO (some centres unmarked) [YT732] | 0.008 µg/mL (≈ 0.00974 µM) | 8 µg/mL (≈ 9.74 µM) | 0.5 µg/mL (≈ 0.609 µM) | 0.03 µg/mL (≈ 0.0365 µM) | 0.03 µg/mL (≈ 0.0365 µM) | 0.12 µg/mL (≈ 0.146 µM) | 0.25 µg/mL (≈ 0.304 µM) | 1 to 4 µg/mL (≈ 1.22 to 4.87 µM) | 2 to 4 µg/mL (≈ 2.44 to 4.87 µM) | – |
| CCC1OC(=O)CC(O)C(C)C(OC2OC(C)C(O)C(N(C)C)C2O)C(CCn2cc(-c3ccccc3)nn2)CC(C)C(=O)C=CC(C)=CC1CO (centres unmarked) [YT112, 20-(4-phenyl-1H-1,2,3-triazol-1-yl)-20-deoxo-5-O-mycaminosyltylonolide] | – | – | – | – | – | – | – | – | – | Inhibition zone ([11]; 3 mg/6 mm disk, Table 4): 17.0 mm; Inhibition zone ([11]; 10 mg/6 mm disk, Table 4): 20.0 mm; Inhibition zone ([11]; 30 mg/6 mm disk, Table 4): 25.0 mm; Inhibition zone ([11]; 100 mg/6 mm disk, Table 4): 29.0 mm; Inhibition zone ([12]; Table 5): 11.5 mm; MICs ([8]; M. haemolytica isolate 1): 8 µg/mL; MICs ([8]; M. haemolytica isolate 2): 4 µg/mL; MICs ([8]; M. haemolytica isolate 3): 8 µg/mL; MICs ([9]; pleuropneumoniae isolate 1): 4 µg/mL; MICs ([9]; pleuropneumoniae isolate 2): 4 µg/mL; MICs ([9]; pleuropneumoniae isolate 3): 4 µg/mL; MICs ([9]; pleuropneumoniae isolate 4): 8 µg/mL; MICs ([9]; pleuropneumoniae isolate 5): 4 µg/mL; MICs ([9]; pleuropneumoniae isolate 6): 8 µg/mL |
| CC[C@H]1OC(=O)C[C@@H](O)[C@H](C)[C@@H](O[C@@H]2OC(C)[C@@H](O)C(N(C)C)C2O)[C@@H](CCN(C)Cc2cn(-c3cnc4ccccc4c3)nn2)C[C@@H](C)C(=O)/C=C/C(C)=C/[C@@H]1CN1CCCCC1 (some centres unmarked) [YT769] | ≤ 0.015 µg/mL | 4 µg/mL (≈ 4.5 µM) | 0.25 µg/mL (≈ 0.281 µM) | ≤ 0.015 µg/mL | ≤ 0.015 µg/mL | ≤ 0.015 µg/mL | 0.25 µg/mL (≈ 0.281 µM) | – | – | – |
| CC[C@H]1OC(=O)C[C@@H](O)[C@H](C)[C@@H](O[C@@H]2OC(C)[C@@H](O)C(N(C)C)C2O)[C@@H](CCN(C)Cc2cn(-c3cnc4ccccc4c3)nn2)C[C@@H](C)C(=O)/C=C/C(C)=C/[C@@H]1CN(C)C (some centres unmarked) [YT770] | ≤ 0.015 µg/mL | 4 µg/mL (≈ 4.72 µM) | 0.25 µg/mL (≈ 0.295 µM) | ≤ 0.015 µg/mL | 0.03 µg/mL (≈ 0.0354 µM) | 0.03 µg/mL (≈ 0.0354 µM) | 0.25 µg/mL (≈ 0.295 µM) | – | – | – |
| CC[C@H]1OC(=O)C[C@@H](O)[C@H](C)[C@@H](O[C@@H]2OC(C)[C@@H](O)C(N(C)C)C2O)[C@@H](CCN(C)Cc2cn(-c3cnc4ccccc4c3)nn2)C[C@@H](C)C(=O)/C=C/C(C)=C/[C@@H]1CO (some centres unmarked) [YT650] | 0.004 µg/mL (≈ 0.00487 µM) | 8 µg/mL (≈ 9.74 µM) | 0.25 µg/mL (≈ 0.304 µM) | 0.008 µg/mL (≈ 0.00974 µM) | 0.03 µg/mL (≈ 0.0365 µM) | 0.03 µg/mL (≈ 0.0365 µM) | 0.25 µg/mL (≈ 0.304 µM) | – | – | – |
| CCC1OC(=O)CC(O)C(C)C(OC2OC(C)C(O)C(N(C)C)C2O)C(CCN=[N+]=[N-])CC(C)C(=O)C=CC(C)=CC1COC1OC(C)C(O)C(OC)C1OC (centres unmarked) [YT11, 20-azido-20-deoxodesmycosin] | – | – | – | – | – | – | – | – | – | Inhibition zone ([11]; 3 mg/6 mm disk, Table 2): 10.0 mm; Inhibition zone ([11]; 10 mg/6 mm disk, Table 2): 13.0 mm; Inhibition zone ([11]; 30 mg/6 mm disk, Table 2): 16.0 mm; Inhibition zone ([11]; 100 mg/6 mm disk, Table 2): 18.0 mm; Inhibition zone ([12]; Table 3): 11.0 mm |
| CC[C@H]1OC(=O)C[C@@H](O)[C@H](C)[C@@H](O[C@@H]2OC(C)[C@@H](O)C(N(C)C)C2O)[C@@H](CCNCCn2cc(-c3ccc(-c4ccccc4)cc3)nn2)C[C@@H](C)C(=O)/C=C/C(C)=C/[C@@H]1CO (some centres unmarked) [YT721] | 0.06 µg/mL (≈ 0.0709 µM) | 8 µg/mL (≈ 9.46 µM) | 0.5 µg/mL (≈ 0.591 µM) | 0.125 µg/mL (≈ 0.148 µM) | 0.12 µg/mL (≈ 0.142 µM) | 0.25 µg/mL (≈ 0.295 µM) | 0.5 µg/mL (≈ 0.591 µM) | 1 to 4 µg/mL (≈ 1.18 to 4.73 µM) | 8 µg/mL (≈ 9.46 µM) | – |
| CC[C@H]1OC(=O)C[C@@H](O)[C@H](C)[C@@H](O[C@@H]2OC(C)[C@@H](O)C(N(C)C)C2O)[C@@H](CCN(Cc2ccccc2)Cc2cn(-c3ccc4ccccc4c3)nn2)C[C@@H](C)C(=O)/C=C/C(C)=C/[C@@H]1CO (some centres unmarked) [YT762] | 0.015 µg/mL (≈ 0.0167 µM) | 8 µg/mL (≈ 8.93 µM) | 1 µg/mL (≈ 1.12 µM) | 0.03 µg/mL (≈ 0.0335 µM) | 0.03 µg/mL (≈ 0.0335 µM) | 0.12 µg/mL (≈ 0.134 µM) | 0.25 µg/mL (≈ 0.279 µM) | – | – | – |
